Measurements: the supplement of paper PMC11451515

System: P12-Ichikawa
Assay: cell viability relative to DMSO control; higher = less cytotoxic
Details: 48 h
Outline: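 Library compounds in DMSO were pin-dosed into 1536-well plates (5 μl) holding NOMO1 or SEM (500 cells/well) or P12-Ichikawa (1000 cells/well) leukemia cells, across an 11-point threefold series of 47 μM to 0.79 nM. Each cell line had been adapted for at least four passages in each medium. CellTiter-Glo One luminescence was read after 48 h at 37°C. Viability is the per-plate percentage relative to DMSO wells, with cell-free wells as background.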

[1] = HPLM + 10% dialyzed FBS, 0.000781 µM
[2] = HPLM + 10% dialyzed FBS, 0.00234 µM
[3] = HPLM + 10% dialyzed FBS, 0.00702 µM
[4] = HPLM + 10% dialyzed FBS, 0.0211 µM
[5] = HPLM + 10% dialyzed FBS, 0.0632 µM
[6] = HPLM + 10% dialyzed FBS, 0.19 µM
[7] = HPLM + 10% dialyzed FBS, 0.569 µM
[8] = HPLM + 10% dialyzed FBS, 1.71 µM
[9] = HPLM + 10% dialyzed FBS, 5.12 µM
[10] = HPLM + 10% dialyzed FBS, 15.4 µM
[11] = HPLM + 10% dialyzed FBS, 46.1 µM
[12] = RPMI 5 mM glucose + 10% FBS, 0.000781 µM
[13] = RPMI 5 mM glucose + 10% FBS, 0.00234 µM
[14] = RPMI 5 mM glucose + 10% FBS, 0.00702 µM
[15] = RPMI 5 mM glucose + 10% FBS, 0.0211 µM
[16] = RPMI 5 mM glucose + 10% FBS, 0.0632 µM
[17] = RPMI 5 mM glucose + 10% FBS, 0.19 µM
[18] = RPMI 5 mM glucose + 10% FBS, 0.569 µM
[19] = RPMI 5 mM glucose + 10% FBS, 1.71 µM
[20] = RPMI 5 mM glucose + 10% FBS, 5.12 µM
[21] = RPMI 5 mM glucose + 10% FBS, 15.4 µM
[22] = RPMI 5 mM glucose + 10% FBS, 46.1 µM
[23] = RPMI 5 mM glucose + 10% dialyzed FBS, 0.000781 µM
[24] = RPMI 5 mM glucose + 10% dialyzed FBS, 0.00234 µM
[25] = RPMI 5 mM glucose + 10% dialyzed FBS, 0.00702 µM
[26] = RPMI 5 mM glucose + 10% dialyzed FBS, 0.0211 µM
[27] = RPMI 5 mM glucose + 10% dialyzed FBS, 0.0632 µM
[28] = RPMI 5 mM glucose + 10% dialyzed FBS, 0.19 µM
[29] = RPMI 5 mM glucose + 10% dialyzed FBS, 0.569 µM
[30] = RPMI 5 mM glucose + 10% dialyzed FBS, 1.71 µM
[31] = RPMI 5 mM glucose + 10% dialyzed FBS, 5.12 µM
[32] = RPMI 5 mM glucose + 10% dialyzed FBS, 15.4 µM
[33] = RPMI 5 mM glucose + 10% dialyzed FBS, 46.1 µM

CC1=C(C)C(=O)C(C(CCCCCC(=O)O)c2ccccc2)=C(C)C1=O (configuration not stated)
cell viability [1]: 76.1% | cell viability [2]: 91.6% | cell viability [3]: 83.8% | cell viability [4]: 76.4% | cell viability [5]: 80.6% | cell viability [6]: 84.5% | cell viability [7]: 73.8% | cell viability [8]: 83.9% | cell viability [9]: 86.2% | cell viability [10]: 84.5% | cell viability [11]: 70.6% | cell viability [12]: 86% | cell viability [13]: 91.2% | cell viability [14]: 96.2% | cell viability [15]: 94.5% | cell viability [16]: 103% | cell viability [17]: 97.5% | cell viability [18]: 82.3% | cell viability [19]: 96.1% | cell viability [20]: 72.9% | cell viability [21]: 66.7% | cell viability [22]: 56.6% | cell viability [23]: 70.5% | cell viability [24]: 77.9% | cell viability [25]: 71.7% | cell viability [26]: 84.1% | cell viability [27]: 84.4% | cell viability [28]: 85.8% | cell viability [29]: 79.2% | cell viability [30]: 80.3% | cell viability [31]: 67.4% | cell viability [32]: 72% | cell viability [33]: 52.1%

CCOC(=O)[C@@H](N)Cc1ccc(-c2cc(O[C@H](c3ccc(Cl)cc3-n3ccc(C)n3)C(F)(F)F)nc(N)n2)cc1.O=C(O)CNC(=O)c1ccccc1
cell viability [1]: 107% | cell viability [2]: 110% | cell viability [3]: 103% | cell viability [4]: 112% | cell viability [5]: 106% | cell viability [6]: 110% | cell viability [7]: 109% | cell viability [8]: 111% | cell viability [9]: 109% | cell viability [10]: 103% | cell viability [11]: 70.2% | cell viability [12]: 117% | cell viability [13]: 112% | cell viability [14]: 107% | cell viability [15]: 122% | cell viability [16]: 114% | cell viability [17]: 121% | cell viability [18]: 120% | cell viability [19]: 122% | cell viability [20]: 107% | cell viability [21]: 96.2% | cell viability [22]: 56.3% | cell viability [23]: 109% | cell viability [24]: 113% | cell viability [25]: 107% | cell viability [26]: 107% | cell viability [27]: 102% | cell viability [28]: 113% | cell viability [29]: 110% | cell viability [30]: 108% | cell viability [31]: 107% | cell viability [32]: 103% | cell viability [33]: 44.1%

CC(C)(O)CC[C@@H](O)[C@](C)(O)[C@H]1CC[C@@]2(O)C/3=C/C(=O)[C@@H]4C[C@@H](O)[C@@H](O)C[C@]4(C)[C@H]3CC[C@]12C
cell viability [1]: 100% | cell viability [2]: 103% | cell viability [3]: 94.5% | cell viability [4]: 96.6% | cell viability [5]: 102% | cell viability [6]: 98.4% | cell viability [7]: 88.6% | cell viability [8]: 93.6% | cell viability [9]: 89.2% | cell viability [10]: 89.6% | cell viability [11]: 87.4% | cell viability [12]: 90.7% | cell viability [13]: 96.3% | cell viability [14]: 93.4% | cell viability [15]: 96.3% | cell viability [16]: 86.7% | cell viability [17]: 104% | cell viability [18]: 92.2% | cell viability [19]: 94.1% | cell viability [20]: 88% | cell viability [21]: 86% | cell viability [22]: 96.8% | cell viability [23]: 95% | cell viability [24]: 90.6% | cell viability [25]: 90.8% | cell viability [26]: 89% | cell viability [27]: 94.6% | cell viability [28]: 89.2% | cell viability [29]: 88.8% | cell viability [30]: 86.9% | cell viability [31]: 91.2% | cell viability [32]: 83.3% | cell viability [33]: 89.4%

C[C@]12CCC(=O)C=C1CC[C@@H]1[C@@H]2[C@@H](O)C[C@@]2(C)[C@H]1CC[C@]2(O)C(=O)CO
cell viability [1]: 107% | cell viability [2]: 106% | cell viability [3]: 105% | cell viability [4]: 107% | cell viability [5]: 111% | cell viability [6]: 111% | cell viability [7]: 115% | cell viability [8]: 94.1% | cell viability [9]: 89.7% | cell viability [10]: 88.9% | cell viability [11]: 84.4% | cell viability [12]: 104% | cell viability [13]: 103% | cell viability [14]: 103% | cell viability [15]: 115% | cell viability [16]: 113% | cell viability [17]: 109% | cell viability [18]: 104% | cell viability [19]: 83.2% | cell viability [20]: 78.4% | cell viability [21]: 70.9% | cell viability [22]: 69.2% | cell viability [23]: 104% | cell viability [24]: 115% | cell viability [25]: 107% | cell viability [26]: 119% | cell viability [27]: 112% | cell viability [28]: 114% | cell viability [29]: 100% | cell viability [30]: 78.5% | cell viability [31]: 78.3% | cell viability [32]: 65.4% | cell viability [33]: 64.2%
